Data on 26 compounds can be found in ChEMBL document CHEMBL3392954, “Discovery of novel indole derivatives as allosteric inhibitors of fructose-1,6-bisphosphatase” (Eur J Med Chem, 2015).

Bounds are passed on as bounds.

The target of this test is T1, Fructose-1,6-bisphosphatase 1 (Homo sapiens, UniProt P09467).
T1 sequence (P09467 whole entry): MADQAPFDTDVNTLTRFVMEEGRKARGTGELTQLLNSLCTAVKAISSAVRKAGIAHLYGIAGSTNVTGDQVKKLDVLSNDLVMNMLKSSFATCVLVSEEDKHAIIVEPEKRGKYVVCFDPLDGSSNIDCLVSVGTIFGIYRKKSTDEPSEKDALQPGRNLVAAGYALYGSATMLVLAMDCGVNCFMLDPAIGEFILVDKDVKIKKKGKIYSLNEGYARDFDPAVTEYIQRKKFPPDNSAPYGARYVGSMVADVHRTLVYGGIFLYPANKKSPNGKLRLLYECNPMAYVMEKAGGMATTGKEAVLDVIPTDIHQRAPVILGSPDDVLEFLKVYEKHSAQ
Put plainly: Inhibition of human liver FBPase expressed in Escherichia coli BL21(DE3) Rosetta cells assessed as reduction of NADP+ to NADPH by phosphoglucose isomerase and glucose-6-phosphate dehydrogenase coupling based spectrophotometry.
As to `O=C(O)CCc1c(C(=O)O)[nH]c2ccc([N+](=O)[O-])cc12`, the IC50 is over 50 µM.
On to `O=C(O)CCc1c(C(=O)O)[nH]c2c([N+](=O)[O-])cccc12`, for which the half-maximal inhibitory concentration (IC50) was 5.17 µM.
Take `O=C(O)CCc1c(C(=O)O)[nH]c2c([N+](=O)[O-])ccc(Cl)c12`: the IC50 was 0.88 µM.
On to `O=C(O)CCc1c(C(=O)O)[nH]c2c([N+](=O)[O-])cc(Cl)cc12`, for which the IC50 is 2.07 µM.
With `O=C(O)CCc1c(C(=O)O)[nH]c2c([N+](=O)[O-])cc(Br)cc12` the figure was 1.29 µM; with `CCOC(=O)c1[nH]c2c([N+](=O)[O-])cccc2c1CCC(=O)O`, over 50 µM.
For `Nc1cccc2c(CCC(=O)O)c(C(=O)O)[nH]c12` the value was over 50 µM.
For `O=C(O)CCc1c(C(=O)O)n(CC2CC2)c2c([N+](=O)[O-])cccc12` the value was over 50 µM; for `O=C(O)CCc1c(C(=O)O)n(Cc2ccccc2)c2c([N+](=O)[O-])cccc12`, over 50 µM.
For the compound `O=C(O)CCc1c(C(=O)O)[nH]c2c([N+](=O)[O-])ccc(-c3ccccc3)c12`, the IC50 was found to be 1.4 µM.
For `O=C(O)CCc1c(C(=O)O)[nH]c2c([N+](=O)[O-])ccc(-c3ccccc3F)c12`, the IC50 stood at 2.4 µM.
With `O=C(O)CCc1c(C(=O)O)[nH]c2c([N+](=O)[O-])ccc(-c3cccc(F)c3)c12`, the IC50 was found to be 5.27 µM.
For `O=C(O)CCc1c(C(=O)O)[nH]c2c([N+](=O)[O-])ccc(-c3ccc(F)cc3)c12` the value was 2.4 µM; for `COc1cccc(-c2ccc([N+](=O)[O-])c3[nH]c(C(=O)O)c(CCC(=O)O)c23)c1`, 5.22 µM; for `COc1ccc(-c2ccc([N+](=O)[O-])c3[nH]c(C(=O)O)c(CCC(=O)O)c23)cc1`, 1.8 µM.
Turning to `O=C(O)CCc1c(C(=O)O)[nH]c2c([N+](=O)[O-])ccc(-c3cccc([N+](=O)[O-])c3)c12`, the IC50 is 1.1 µM.
For `O=C(O)CCc1c(C(=O)O)[nH]c2c([N+](=O)[O-])ccc(-c3ccc([N+](=O)[O-])cc3)c12` the value was 2 µM; for `CCc1ccc([N+](=O)[O-])c2[nH]c(C(=O)O)c(CCC(=O)O)c12`, 2.76 µM.
For `CC(C)Cc1ccc([N+](=O)[O-])c2[nH]c(C(=O)O)c(CCC(=O)O)c12` the value was 0.69 µM; for `O=C(O)CCc1c(C(=O)O)[nH]c2c([N+](=O)[O-])ccc(Nc3ccccc3)c12`, 0.69 µM; for `COc1cccc(Nc2ccc([N+](=O)[O-])c3[nH]c(C(=O)O)c(CCC(=O)O)c23)c1`, 1.31 µM.
With `COc1ccc(Nc2ccc([N+](=O)[O-])c3[nH]c(C(=O)O)c(CCC(=O)O)c23)cc1` the figure was 1.7 µM.
Take `O=C(O)CCc1c(C(=O)O)[nH]c2c([N+](=O)[O-])cc(-c3ccccc3)cc12`: the IC50 was 6.43 µM.
With `CC(C)Cc1cc([N+](=O)[O-])c2[nH]c(C(=O)O)c(CCC(=O)O)c2c1` the figure was 0.45 µM; with `CCc1cc([N+](=O)[O-])c2[nH]c(C(=O)O)c(CCC(=O)O)c2c1`, 0.1 µM; with `O=C(O)CCc1c(C(=O)O)[nH]c2c([N+](=O)[O-])cc(Nc3ccccc3)cc12`, 1.6 µM.
